# Test results published in ChEMBL document CHEMBL1201862, “PubChem BioAssay data set” (2004).
# The source made the active and inactive calls. How the calls were made is not given here.
# Tests used:
# [1] = Counterscreen for AddAB inhibitors: absorbance-based bacterial cell-based high throughput dose response assay for inhibitors of bacterial viability. [Related pubchem assays (depositor defined):AID435030, AID449728, AID449731, AID488942, AID488955, AID488956]; format: functional
# Exodeoxyribonuclease V = target: T1, Exodeoxyribonuclease V (Escherichia coli (strain K12), UniProt P04993+P07648+P08394); assay: RecBCD inhibition via phage-restricted bacterial growth – absorbance, V66 E. coli, mutant T4 phage, counter-screen for AddAB inhibitor project, dose response (AID 492957); format: functional, cell-based, Escherichia coli str. K-12 substr. MG1655
# T1 sequence (P04993 whole entry): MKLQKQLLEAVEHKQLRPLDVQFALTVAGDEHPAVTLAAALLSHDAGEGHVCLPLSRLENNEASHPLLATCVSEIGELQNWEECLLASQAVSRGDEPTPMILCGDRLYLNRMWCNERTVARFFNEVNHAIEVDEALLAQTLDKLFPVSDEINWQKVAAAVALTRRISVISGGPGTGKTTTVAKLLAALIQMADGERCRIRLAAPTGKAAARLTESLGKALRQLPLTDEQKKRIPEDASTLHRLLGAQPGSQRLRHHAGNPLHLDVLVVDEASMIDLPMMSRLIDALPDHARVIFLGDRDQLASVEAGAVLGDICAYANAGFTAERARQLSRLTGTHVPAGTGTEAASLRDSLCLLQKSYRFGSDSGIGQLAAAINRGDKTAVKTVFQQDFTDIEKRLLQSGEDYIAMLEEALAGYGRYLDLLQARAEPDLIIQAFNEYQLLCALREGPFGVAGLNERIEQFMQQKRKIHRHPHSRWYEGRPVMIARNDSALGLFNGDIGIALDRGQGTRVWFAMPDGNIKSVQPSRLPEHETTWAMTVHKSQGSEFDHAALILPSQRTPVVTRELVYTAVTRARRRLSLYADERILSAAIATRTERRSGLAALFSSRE
# T1 sequence (P07648 whole entry): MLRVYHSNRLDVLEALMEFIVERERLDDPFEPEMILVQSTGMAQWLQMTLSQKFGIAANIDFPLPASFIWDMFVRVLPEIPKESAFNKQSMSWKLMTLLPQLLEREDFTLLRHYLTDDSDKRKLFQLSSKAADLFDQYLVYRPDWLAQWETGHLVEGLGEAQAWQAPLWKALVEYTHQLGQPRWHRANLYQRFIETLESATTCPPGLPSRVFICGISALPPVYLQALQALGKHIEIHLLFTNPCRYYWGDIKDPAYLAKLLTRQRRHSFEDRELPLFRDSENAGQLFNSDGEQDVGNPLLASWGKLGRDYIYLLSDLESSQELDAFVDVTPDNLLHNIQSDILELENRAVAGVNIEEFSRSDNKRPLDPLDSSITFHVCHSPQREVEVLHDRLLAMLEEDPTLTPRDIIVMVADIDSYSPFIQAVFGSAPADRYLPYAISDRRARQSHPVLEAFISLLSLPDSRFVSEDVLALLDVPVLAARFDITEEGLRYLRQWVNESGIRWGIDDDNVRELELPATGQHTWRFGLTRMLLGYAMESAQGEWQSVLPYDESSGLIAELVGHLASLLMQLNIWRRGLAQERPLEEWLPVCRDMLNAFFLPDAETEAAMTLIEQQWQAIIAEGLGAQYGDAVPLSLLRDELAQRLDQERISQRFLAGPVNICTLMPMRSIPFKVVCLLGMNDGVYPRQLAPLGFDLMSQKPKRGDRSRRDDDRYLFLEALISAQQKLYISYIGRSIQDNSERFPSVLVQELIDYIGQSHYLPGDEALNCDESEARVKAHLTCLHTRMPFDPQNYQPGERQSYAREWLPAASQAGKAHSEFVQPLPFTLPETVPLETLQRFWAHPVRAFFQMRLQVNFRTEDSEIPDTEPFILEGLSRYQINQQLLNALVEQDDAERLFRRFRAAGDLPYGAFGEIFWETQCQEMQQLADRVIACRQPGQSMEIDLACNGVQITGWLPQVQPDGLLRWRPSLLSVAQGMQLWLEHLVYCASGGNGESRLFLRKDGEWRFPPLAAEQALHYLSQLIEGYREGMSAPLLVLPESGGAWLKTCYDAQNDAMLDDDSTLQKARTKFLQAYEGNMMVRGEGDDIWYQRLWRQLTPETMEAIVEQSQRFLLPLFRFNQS
# T1 sequence (P08394 whole entry): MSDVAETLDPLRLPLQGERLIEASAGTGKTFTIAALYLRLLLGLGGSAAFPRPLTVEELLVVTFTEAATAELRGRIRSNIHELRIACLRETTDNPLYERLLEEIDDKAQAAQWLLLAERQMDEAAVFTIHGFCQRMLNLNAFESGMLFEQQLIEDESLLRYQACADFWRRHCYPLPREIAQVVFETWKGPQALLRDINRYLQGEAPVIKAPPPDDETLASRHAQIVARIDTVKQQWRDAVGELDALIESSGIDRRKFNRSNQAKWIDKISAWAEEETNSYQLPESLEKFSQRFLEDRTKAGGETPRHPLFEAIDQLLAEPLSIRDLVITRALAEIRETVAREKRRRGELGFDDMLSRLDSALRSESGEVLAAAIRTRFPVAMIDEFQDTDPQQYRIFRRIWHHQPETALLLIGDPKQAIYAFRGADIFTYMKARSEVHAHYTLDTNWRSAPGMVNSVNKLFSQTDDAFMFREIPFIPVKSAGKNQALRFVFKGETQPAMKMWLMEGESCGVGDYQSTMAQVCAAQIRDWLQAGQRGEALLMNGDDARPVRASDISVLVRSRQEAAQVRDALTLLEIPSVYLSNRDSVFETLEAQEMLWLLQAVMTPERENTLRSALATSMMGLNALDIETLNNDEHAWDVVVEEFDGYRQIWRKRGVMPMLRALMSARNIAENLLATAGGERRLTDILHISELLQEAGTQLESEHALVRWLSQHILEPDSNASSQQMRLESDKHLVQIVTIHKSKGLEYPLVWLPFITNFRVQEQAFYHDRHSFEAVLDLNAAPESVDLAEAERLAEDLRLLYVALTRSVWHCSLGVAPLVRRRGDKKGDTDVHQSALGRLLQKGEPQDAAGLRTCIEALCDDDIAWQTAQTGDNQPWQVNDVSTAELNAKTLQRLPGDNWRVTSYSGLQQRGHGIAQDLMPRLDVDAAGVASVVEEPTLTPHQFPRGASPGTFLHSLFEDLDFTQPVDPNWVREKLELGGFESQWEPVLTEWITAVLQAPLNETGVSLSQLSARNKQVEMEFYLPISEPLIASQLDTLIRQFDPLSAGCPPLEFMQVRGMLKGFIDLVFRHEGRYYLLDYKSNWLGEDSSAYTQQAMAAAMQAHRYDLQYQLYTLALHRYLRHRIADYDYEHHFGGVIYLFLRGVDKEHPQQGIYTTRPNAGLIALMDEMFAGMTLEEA
Structure (SMILES),IC50 [1],IC50 (Exodeoxyribonuclease V)
O=C(N/N=C/c1ccc(O)cc1O)C(=O)N/N=C/c1ccc(O)cc1O,> 119 µM (inactive),> 119 µM (inactive)
Cc1onc(-c2ccccc2)c1C(=O)NC(=S)NNC(=O)c1ccc(O)cc1O,> 39.5 µM (inactive),> 39.5 µM (inactive)
